17 compounds from ChEMBL document CHEMBL5131375, “Recent Developments in the Use of Kinase Inhibitors for Management of Viral Infections” (J Med Chem, 2022) can be followed below.

The term EC50 denotes the concentration giving half of the maximal effect. For orientation: IC50 means the concentration that inhibits the measured activity by half. Usually Kd stands for the constant that tells how readily two partners part at equilibrium.

Data set [1] can be described thus: in vitro. The note with it: dog, MDCK cells.
Data set [2] relates to Influenza A virus. The data set can be described thus: microbe, parasite or virus in culture. The data set is classed as functional, organism-based.
Data set [3] in a line: Volume of distribution at steady state in cynomolgus monkey plasma at 3 mg/kg, iv at […] LC-MS/MS analysis. The data set is classed as ADME, organism-based, Macaca fascicularis. The note with it: time 0.083 hrs, read-out: Vdss.
The next data set relates to Vero C1008. As to the kind of experiment: Cytotoxicity against African green monkey Vero E6 cells at 250 nM. The data set is classed as toxicity, cell-based. The note with it: chlorocebus sabaeus, vero c1008, 0.25 µM.
Data set [4] in a line: Volume of distribution at steady state in Han-Wistar rat plasma at 5 mg/kg, iv at […] LC-MS/MS analysis. In kind it is ADME, organism-based. The note with it: time 0.083 hrs, read-out: Vdss.
Data set [5] in a line: Volume of distribution at steady state in Beagle dog plasma at 1 mg/kg, iv at […] LC-MS/MS analysis. The data set is classed as ADME, organism-based, Canis lupus familiaris. The note with it: time 0.083 hrs, read-out: Vdss.
Data set [6] can be described thus: Volume of distribution at steady state in CD-1 mouse plasma at 10 mg/kg, iv at […] LC-MS/MS analysis. The data set is classed as ADME, organism-based. The note with it: time 0.083 hrs, read-out: Vdss.
The subject of data set [7] is SARS-CoV-2. The data set can be described thus: microbe, parasite or virus in culture. The note with it: Severe acute respiratory syndrome coronavirus 2. The data set is classed as functional, organism-based.
The test system of data set [8] is Influenza A virus. As to the kind of experiment: microbe, parasite or virus in culture. In kind it is functional, organism-based. The note with it: H1N1pdm09.
The nature of data set [9]: Cytotoxicity against human A549 cells. The data set is classed as toxicity, cell-based.
Data set [10] has as its system Influenza A virus. The data set can be described thus: microbe, parasite or virus in culture. The note with it: H3N2. In kind it is functional, organism-based.
Data set [11] can be described thus: Cytotoxicity against golden hamster BSR cells. The data set is classed as toxicity, cell-based, Mesocricetus auratus.
A further data set has as its system Lyssavirus rabies. As to the kind of experiment: microbe, parasite or virus in culture. The data set is classed as functional, organism-based.
Data set [12] can be described thus: in vitro. The note with it: human.
Another data set deals with Dengue virus. As to the kind of experiment: microbe, parasite or virus in culture.
A further data set has as its system Human rhinovirus sp. As to the kind of experiment: microbe, parasite or virus in culture.
Data set [13] concerns Hepatitis C virus. The data set can be described thus: microbe, parasite or virus in culture. The note with it: subtype 1b.
In the next data set the test system is Coxsackievirus B3. The data set can be described thus: microbe, parasite or virus in culture. The note with it: Enterovirus B.
Data set [14] can be described thus: in vitro. The note with it: human, hela.
The subject of data set [15] is Influenza A virus. The data set can be described thus: microbe, parasite or virus in culture. The data set is classed as functional, organism-based. The note with it: pdmH1N1.
Data set [16] deals with Influenza A virus. The data set can be described thus: Antiviral activity against influenza A virus HN79. In kind it is functional, organism-based.
Data set [17] has as its system Hepatitis C virus. As to the kind of experiment: microbe, parasite or virus in culture.
Data set [18] deals with Hepatitis C virus. The data set can be described thus: microbe, parasite or virus in culture. The source holds these as a separate data set.
Data set [19] is described as follows: in vitro. The note with it: human, huh-7.
For data set [20], the target named is AP2-associated protein kinase 1 (Homo sapiens, UniProt Q2M2I8).
Sequence of AP2-associated protein kinase 1 (Q2M2I8 whole entry): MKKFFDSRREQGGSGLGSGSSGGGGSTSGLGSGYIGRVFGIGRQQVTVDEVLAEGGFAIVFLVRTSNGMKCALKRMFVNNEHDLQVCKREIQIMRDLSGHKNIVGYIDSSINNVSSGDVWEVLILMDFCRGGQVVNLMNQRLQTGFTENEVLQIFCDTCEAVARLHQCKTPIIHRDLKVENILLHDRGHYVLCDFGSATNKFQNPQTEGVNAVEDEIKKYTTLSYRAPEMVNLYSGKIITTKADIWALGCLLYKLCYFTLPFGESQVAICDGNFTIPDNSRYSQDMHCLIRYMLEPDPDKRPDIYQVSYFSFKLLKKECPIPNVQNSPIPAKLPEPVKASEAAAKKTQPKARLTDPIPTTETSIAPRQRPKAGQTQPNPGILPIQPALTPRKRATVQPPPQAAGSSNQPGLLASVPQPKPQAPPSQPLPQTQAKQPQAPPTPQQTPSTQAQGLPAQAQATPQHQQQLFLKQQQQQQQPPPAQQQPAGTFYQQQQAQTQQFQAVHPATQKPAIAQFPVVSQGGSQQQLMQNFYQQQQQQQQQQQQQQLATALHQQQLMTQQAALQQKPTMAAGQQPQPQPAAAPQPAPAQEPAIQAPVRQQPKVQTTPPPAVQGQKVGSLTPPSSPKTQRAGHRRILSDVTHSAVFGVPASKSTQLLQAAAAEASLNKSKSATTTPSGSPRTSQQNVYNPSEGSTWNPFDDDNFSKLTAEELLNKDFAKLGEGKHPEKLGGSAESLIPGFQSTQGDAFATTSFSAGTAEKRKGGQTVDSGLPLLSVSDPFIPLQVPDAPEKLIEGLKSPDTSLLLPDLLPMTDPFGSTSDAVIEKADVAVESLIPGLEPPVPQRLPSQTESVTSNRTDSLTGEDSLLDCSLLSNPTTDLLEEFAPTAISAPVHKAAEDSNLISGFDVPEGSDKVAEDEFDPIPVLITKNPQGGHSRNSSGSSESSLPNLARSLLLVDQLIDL
Data set [21] concerns SARS-CoV-2. The data set can be described thus: microbe, parasite or virus in culture. The data set is classed as functional, organism-based. The note with it: Severe acute respiratory syndrome coronavirus 2, Huh-7.
Data set [22] deals with SARS-CoV-2. As to the kind of experiment: microbe, parasite or virus in culture. The data set is classed as functional, organism-based, Vero E6. The note with it: Severe acute respiratory syndrome coronavirus 2, Vero C1008.
In data set [23] the test system is Human alphaherpesvirus 1. As to the kind of experiment: Antiviral activity against HSV-1 in HFL1 cells incubated for 24 hrs. In kind it is functional, organism-based. The note with it: Human alphaherpesvirus 1, HFL1, 24 h.
Data set [24] in a line: Cytotoxicity against HFL1 cells. In kind it is toxicity, cell-based. The note with it: human.
The test system of data set [25] is Human alphaherpesvirus 1. As to the kind of experiment: microbe, parasite or virus in culture. The data set is classed as functional, organism-based.
Data set [26] is described as follows: in vitro. The note with it: chlorocebus sabaeus, vero c1008.

Each structure is given as a SMILES string. Bounds are passed on as bounds.

`CCS(=O)(=O)Nc1ccc2c(c1)/C(=C(/Nc1ccc(CN3CCCCC3)cc1)c1ccccc1)C(=O)N2` [HESPERADIN] registered a CC50 in “in vitro [1]” of 21.3 µM. Moreover, the 50% effective concentration (EC50) in the data set with Influenza A virus [2] amounted to 280 nM.
With `Cc1cn(-c2cc(NC(=O)c3ccc(C)c(Nc4nccc(-c5cccnc5)n4)c3)cc(C(F)(F)F)c2)cn1` [NILOTINIB], the Vd at […] in data set [3], in data set [4], in [5] and in data set [6] was 0.55 L/kg in each case. In addition, the Activity entry with Vero C1008 is recorded as “Non-Toxic”. Further, in the data set with SARS-CoV-2 [7], the EC50 came out at 80 nM.
`Cc1cc(C(=O)NOCCO)c(Nc2ccc(I)cc2F)n(C)c1=O` [AZD-8330] gave an IC50 in the data set on Influenza A virus [8] of 40 nM. For the same compound, the CC50 in [9] is more than 100 µM.
As to `CNC(=O)c1cccc(-c2ccc3c(N4CCOC[C@@H]4C)nc(N4CCOC[C@@H]4C)nc3n2)c1` [VISTUSERTIB], the Activity result in the data set on Vero C1008 is given as “Non-Toxic”. Moreover, the concentration giving a half-maximal response (EC50) in the data set with SARS-CoV-2 [7] worked out at 15.9 nM.
`CNC(=O)c1cc(Oc2ccc(NC(=O)Nc3ccc(Cl)c(C(F)(F)F)c3)c(F)c2)ccn1` [REGORAFENIB] returned a half-maximal effective concentration (EC50) in the data set with Influenza A virus [10] of 890 nM. Moreover, the CC50 in [9] is 14.2 µM.
Take `CC(=O)c1c(O)c(C)c(O)c(Cc2c(O)c3c(c(C(=O)/C=C/c4ccccc4)c2O)OC(C)(C)C=C3)c1O` [ROTTLERIN]: in data set [11], the CC50 was 100 µM. Besides, in the data set on Lyssavirus rabies, the EC50 came out at 1000 nM.
`COc1ccc(-c2ccc3nsc(N4C[C@@H](C)O[C@@H](C)C4)c3n2)cc1OC`: in the data set “in vitro [12]” (huh7.5.1), the CC50 was more than 10 µM. The compound further yielded a 50% effective concentration (EC50) in the data set with Dengue virus of 1000 nM.
For the compound `COc1ccc(-c2cnc3c(OC(C)C)snc3c2)cc1OC`, the CC50 in the data set “in vitro [12]” (huh7.5.1) was more than 10 µM.
Take `CCNS(=O)(=O)c1cc(-c2c(C)nc3c(NCc4ccnc(CC)c4)cc(Cl)nn23)ccc1OO`: the figures for the concentration giving a half-maximal response (EC50) in the data set on Human rhinovirus sp., in the data set with Hepatitis C virus [13] and in the data set with Coxsackievirus B3 were 75 nM, 29 nM and 58 nM, respectively. Further, the CC50 in the data set “in vitro [14]” worked out at 18.3 µM.
In the case of `Cc1ccc([N+](=O)[O-])cc1S(=O)(=O)N(C)/N=C/c1cnc2ccc(Br)cn12`, the IC50 with Influenza A virus [10], in the data set on Influenza A virus [15], with Influenza A virus [2] and in the data set with Influenza A virus [16] was 40 nM each time. The compound further gave a CC50 in data set [9] of more than 100 µM.
With `Cc1nc2c(NCc3cccc(S(C)(=O)=O)c3)nccn2c1-c1ccc(O)c(F)c1`, the EC50 with Hepatitis C virus [17] and in the data set with Hepatitis C virus [18] was 100 nM in each case. In the data set “in vitro [19]”, this compound had a CC50 of more than 30 µM.
For the compound `COc1cc(F)c(F)c(Nc2ccc(I)cc2F)c1NS(=O)(=O)C1(C[C@H](O)CO)CC1` [REFAMETINIB], the IC50 with Influenza A virus [8] was determined as 60 nM. This compound showed a CC50 in [9] of more than 100 µM.
With `CC[C@@H]1CN(C(=O)NCC(F)(F)F)C[C@@H]1c1cnc2cnc3[nH]ccc3n12` [UPADACITINIB], the dissociation constant (Kd) in data set [20] was found to be 9.9 µM.
With `Cc1cc(Nc2cc3ncccc3c(N[C@@H]3C[C@H]4CC[C@@H](C3)N4CCC#N)n2)n[nH]1` [IZENCITINIB], the half-maximal inhibitory concentration (IC50) in the data set with SARS-CoV-2 [21] came to 20 nM. For the same compound, the concentration giving a half-maximal response (EC50) in the data set with SARS-CoV-2 [22] was found to be 20 nM.
In turn, `Cc1cc(-c2cc(C(=O)Nc3nc(CN4CCCC(C)C4)cs3)c3c(C)noc3n2)c(C)o1` (centres undefined) registered an IC50 with Human alphaherpesvirus 1 [23] of 29 µM. In data set [24], this compound returned a CC50 of 159 µM. The EC50 in the data set with Human alphaherpesvirus 1 [25] is 32 µM.
On to `COc1ccc(-c2cnc3[nH]cc(C#Cc4cccnc4)c3c2)cc1OC`, for which the CC50 in “in vitro [12]” (Huh-7.5.1 cells) worked out at 17 µM. The compound further had an EC50 with Dengue virus of 43 nM.
For the compound `CCc1nc(C(N)=O)c(Nc2ccc(N3CCC(N4CCN(C)CC4)CC3)c(OC)c2)nc1NC1CCOCC1` [GILTERITINIB], in “in vitro [26]”, the CC50 was more than 500 nM. The compound further gave an IC50 in the data set on SARS-CoV-2 [21] of 225 nM. The compound also yielded an EC50 with SARS-CoV-2 [7] of 225 nM.
